Measurements taken from PMC12647759 (Scientific Reports, 2025).
“And” between values parts separate entries of the source, which are not always exact repeats. Identical values can stand only once.

Tests used:
human PLCε = biological target: T1, human PLCε (Homo sapiens, UniProt Q9P212); test: In vitro PLC assay using fluorogenic substrate Compound 1 (HTS), PLCε; assay type: biochemical; conditions: for IC50: purified full-length PLCε, fluorogenic substrate Compound 1, read-out: IC50, inhibition of PLCε (hydrolysis of Compound 1)
T1 construct: expressing the full-length polypeptides of human PLCε, PLCβ4, PLCδ1 and PLCγ1 as FLAG fusions; made in house; host or cells: Expi293F cells
Procedure: For measuring inhibition by compounds for HTS, the reactions were conducted at RIKEN Center for Sustainable Resource Science (CSRS) as described above except that 5 µl of compound solution and 5 µl of purified PLCe (120 ng) were added to each well. […] For determination of the IC50 values for ZPT and Zn^2+, the EDTA concentration was reduced to one-tenth to avoid its zinc-chelating effect. For assay of the other PLC classes, the reactions were performed similarly except that PLCβ4 (5 ng), PLCδ1 (0.1 ng) or PLCγ1 (0.3 ng) was used instead of PLCε.

human PLCβ4 = biological target: T2, human PLCβ4 (Homo sapiens, UniProt Q15147); test: In vitro PLC assay using fluorogenic substrate Compound 1, PLCβ4; assay type: biochemical; conditions: for IC50: purified PLCβ4, fluorogenic substrate Compound 1, read-out: IC50, inhibition of PLCβ4 (hydrolysis of Compound 1)
T2 construct: expressing the full-length polypeptides of human PLCε, PLCβ4, PLCδ1 and PLCγ1 as FLAG fusions; made in house; host or cells: Expi293F cells
T2 sequence (Q15147 1-1175): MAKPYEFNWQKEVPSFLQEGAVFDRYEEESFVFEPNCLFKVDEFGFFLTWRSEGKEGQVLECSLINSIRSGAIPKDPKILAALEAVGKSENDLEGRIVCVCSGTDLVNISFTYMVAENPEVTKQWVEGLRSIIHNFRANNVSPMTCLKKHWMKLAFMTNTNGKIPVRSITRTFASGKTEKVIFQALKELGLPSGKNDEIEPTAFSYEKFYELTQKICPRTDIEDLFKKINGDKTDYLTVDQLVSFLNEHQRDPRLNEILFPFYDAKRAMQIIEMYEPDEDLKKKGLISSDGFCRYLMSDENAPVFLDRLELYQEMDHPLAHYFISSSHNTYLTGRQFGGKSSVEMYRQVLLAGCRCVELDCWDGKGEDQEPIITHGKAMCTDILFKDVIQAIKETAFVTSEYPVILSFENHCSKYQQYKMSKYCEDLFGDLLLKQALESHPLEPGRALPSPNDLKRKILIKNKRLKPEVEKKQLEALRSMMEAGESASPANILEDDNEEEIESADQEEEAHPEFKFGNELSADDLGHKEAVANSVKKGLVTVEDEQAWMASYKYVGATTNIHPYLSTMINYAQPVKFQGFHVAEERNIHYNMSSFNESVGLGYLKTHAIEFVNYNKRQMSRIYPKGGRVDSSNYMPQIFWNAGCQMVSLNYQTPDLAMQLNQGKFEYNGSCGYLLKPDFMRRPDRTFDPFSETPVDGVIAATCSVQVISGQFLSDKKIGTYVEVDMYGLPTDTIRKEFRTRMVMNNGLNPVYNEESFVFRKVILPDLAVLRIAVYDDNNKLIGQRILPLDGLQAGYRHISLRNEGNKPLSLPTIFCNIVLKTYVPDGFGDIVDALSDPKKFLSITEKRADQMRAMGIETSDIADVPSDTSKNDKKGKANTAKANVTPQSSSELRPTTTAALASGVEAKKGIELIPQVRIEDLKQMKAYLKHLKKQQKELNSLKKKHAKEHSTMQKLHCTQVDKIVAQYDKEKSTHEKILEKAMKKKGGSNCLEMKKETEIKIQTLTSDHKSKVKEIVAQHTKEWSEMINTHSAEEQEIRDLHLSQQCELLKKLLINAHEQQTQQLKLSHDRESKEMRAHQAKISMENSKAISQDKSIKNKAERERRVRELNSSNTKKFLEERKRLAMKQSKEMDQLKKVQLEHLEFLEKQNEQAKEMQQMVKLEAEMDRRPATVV
Procedure: Ten µl of 2 × substrate solutions (50 mM HEPES pH7.2, 200 mM NaCl, 0.2 mM CaCl2, 0.4 mM DTT, 0.4 µM EDTA, 0.02% gelatin, 0.2% sodium cholate and 60 µM Compound 1) were added to each well of a 384-well plate (CONING #3573) containing 10 µl of purified PLCε (120 ng) and incubated with shaking at 30 °C for 3 h. After terminating the reaction by the addition of 2 µl of 5 mM EDTA, the fluorescence emission was measured at 520 nm with the excitation at 485 nm by a microplate reader (POLARstar Omega-25). For measuring inhibition by compounds for HTS, the reactions were conducted at RIKEN Center for Sustainable Resource Science (CSRS) as described above except that 5 µl of compound solution and 5 µl of purified PLCe (120 ng) were added to each well. Solution dispensing and fluorescence detection were conducted by using an automated dispenser (EDR-384, Biotec) and a hybrid multi-mode microplate reader (Synergy H4, Biotec), respectively. For determination of the IC50 values for ZPT and Zn^2+, the EDTA concentration was reduced to one-tenth to avoid its zinc-chelating effect. For assay of the other PLC classes, the reactions were performed similarly except that PLCβ4 (5 ng), PLCδ1 (0.1 ng) or PLCγ1 (0.3 ng) was used instead of PLCε.

T1 sequence (Q9P212 whole entry, the tested form may be a part): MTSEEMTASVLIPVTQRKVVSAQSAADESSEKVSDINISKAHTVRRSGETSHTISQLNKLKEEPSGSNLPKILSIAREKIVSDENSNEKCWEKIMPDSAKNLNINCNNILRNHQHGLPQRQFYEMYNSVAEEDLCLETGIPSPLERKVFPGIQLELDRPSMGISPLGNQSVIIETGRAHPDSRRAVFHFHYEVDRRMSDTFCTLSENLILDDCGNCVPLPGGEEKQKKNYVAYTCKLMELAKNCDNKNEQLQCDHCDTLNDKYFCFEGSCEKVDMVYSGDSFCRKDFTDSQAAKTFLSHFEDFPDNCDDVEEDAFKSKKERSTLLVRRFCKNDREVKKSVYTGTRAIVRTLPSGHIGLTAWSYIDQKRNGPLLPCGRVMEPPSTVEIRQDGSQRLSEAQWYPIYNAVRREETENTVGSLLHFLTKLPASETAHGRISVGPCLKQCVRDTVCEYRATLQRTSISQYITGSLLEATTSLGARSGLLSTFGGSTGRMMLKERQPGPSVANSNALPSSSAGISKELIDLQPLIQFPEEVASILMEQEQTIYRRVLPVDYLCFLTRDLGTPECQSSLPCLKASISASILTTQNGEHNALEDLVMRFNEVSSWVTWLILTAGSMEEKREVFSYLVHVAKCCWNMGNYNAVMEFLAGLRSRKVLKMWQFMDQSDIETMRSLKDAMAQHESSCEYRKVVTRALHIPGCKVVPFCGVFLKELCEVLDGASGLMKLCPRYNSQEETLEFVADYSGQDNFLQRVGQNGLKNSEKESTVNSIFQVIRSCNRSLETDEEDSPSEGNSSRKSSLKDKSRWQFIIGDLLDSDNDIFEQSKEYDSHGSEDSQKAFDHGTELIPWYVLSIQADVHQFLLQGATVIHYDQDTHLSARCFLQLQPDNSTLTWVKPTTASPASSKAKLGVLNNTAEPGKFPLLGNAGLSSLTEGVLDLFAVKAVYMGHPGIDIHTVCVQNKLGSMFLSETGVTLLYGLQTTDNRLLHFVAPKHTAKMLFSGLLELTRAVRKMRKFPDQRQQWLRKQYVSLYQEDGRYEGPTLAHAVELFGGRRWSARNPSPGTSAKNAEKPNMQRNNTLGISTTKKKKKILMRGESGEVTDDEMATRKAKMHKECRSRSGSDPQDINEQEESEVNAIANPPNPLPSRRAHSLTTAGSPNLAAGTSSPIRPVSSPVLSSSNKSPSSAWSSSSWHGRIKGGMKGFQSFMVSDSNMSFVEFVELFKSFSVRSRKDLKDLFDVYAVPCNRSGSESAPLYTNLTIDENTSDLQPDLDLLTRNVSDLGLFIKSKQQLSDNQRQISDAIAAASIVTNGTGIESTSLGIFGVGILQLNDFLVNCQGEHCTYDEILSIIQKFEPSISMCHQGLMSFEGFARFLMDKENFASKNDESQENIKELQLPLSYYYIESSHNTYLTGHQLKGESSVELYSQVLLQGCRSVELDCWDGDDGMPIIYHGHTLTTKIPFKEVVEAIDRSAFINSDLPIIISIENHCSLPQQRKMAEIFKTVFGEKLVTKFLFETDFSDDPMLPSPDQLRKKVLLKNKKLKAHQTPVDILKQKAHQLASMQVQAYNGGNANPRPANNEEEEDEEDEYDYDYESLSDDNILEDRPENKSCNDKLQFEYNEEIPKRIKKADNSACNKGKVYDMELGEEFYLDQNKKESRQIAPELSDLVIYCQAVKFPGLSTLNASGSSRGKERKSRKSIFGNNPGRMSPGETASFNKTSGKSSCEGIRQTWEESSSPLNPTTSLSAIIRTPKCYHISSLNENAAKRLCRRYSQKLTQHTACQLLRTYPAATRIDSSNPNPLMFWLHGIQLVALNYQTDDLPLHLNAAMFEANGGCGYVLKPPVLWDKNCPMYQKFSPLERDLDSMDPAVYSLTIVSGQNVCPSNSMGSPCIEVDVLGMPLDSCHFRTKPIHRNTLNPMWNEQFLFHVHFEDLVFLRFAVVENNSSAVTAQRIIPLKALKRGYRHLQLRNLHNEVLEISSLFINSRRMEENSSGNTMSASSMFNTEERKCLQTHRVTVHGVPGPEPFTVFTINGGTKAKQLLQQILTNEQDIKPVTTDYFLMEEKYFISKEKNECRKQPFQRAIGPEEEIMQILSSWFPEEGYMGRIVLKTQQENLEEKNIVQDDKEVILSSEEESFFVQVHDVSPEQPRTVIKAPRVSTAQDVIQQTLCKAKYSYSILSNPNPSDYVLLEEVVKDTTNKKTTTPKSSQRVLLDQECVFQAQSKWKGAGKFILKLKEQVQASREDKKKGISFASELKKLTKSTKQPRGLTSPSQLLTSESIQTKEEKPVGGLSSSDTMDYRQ

Row | IC50 (human PLCε) [µM] | IC50 (human PLCβ4) | Structure (SMILES) | PLCε inhibitory activity of ZnSO4 on addition of excess sodium pyrithione (human PLCε; 5 µM ZnSO4, varying concentrations of sodium pyrithione) | inhibitory activity toward PLCβ (human PLCβ4; Compound 1 as substrate, varying concentrations)
1 | 1.2 | – | O=S(=O)([O-])[O-].[Zn+2] [ZnSO4] | compromised the inhibitory activity of ZnSO4 in a dose-dependent manner | without exhibiting any noticeable inhibitory activities
2 | 1.3 | 40 µM | COc1ccc2c(c[n+](C)c3c4cc5c(cc4ccc23)OCO5)c1OC [chelerythrine] | – | –
3 | 3.1 | 3.7 µM | CCCCCCOc1ccc2c(c1)Oc1cc(OP(=O)(O)O[C@H]3[C@H](O)[C@@H](O)[C@H](OP(=O)(O)O)[C@@H](O)[C@H]3O)ccc1C21OC(=O)c2ccccc21 (stereo partly drawn) [compound 1] | – | –

Row | Structure (SMILES) | IC50 (human PLCε) [µM] | IC50 (human PLCβ4) | PLCε inhibitory activity of ZnSO4 on addition of excess sodium pyrithione (human PLCε; 5 µM ZnSO4, varying concentrations of sodium pyrithione) | inhibitory activity toward PLCβ (human PLCβ4; Compound 1 as substrate, varying concentrations)
4 | C[n+]1cc2c3c(ccc2c2ccc4cc5c(cc4c21)OCO5)OCO3 [Sanguinarine, sanguinarine] | 1.9 | 80 µM and 79.7 µM | – | –
